Article PMC4945863, “Dual thio-digalactoside-binding modes of human galectins as the structural basis for the design of potent and selective inhibitors” (Scientific Reports, 2016)

Experiments:
galectin-3 [1] = conditions: cited from earlier work
galectin-1 = target: T1, galectin-1 (Homo sapiens, UniProt P09382); test: Isothermal titration calorimetry (ITC), galectin-1; type: binding
T1 construct: full-length galectins-1 (residues 1-135); 6xHis; made in house; host or cells: Escherichia coli BL21 (DE3)
T1 sequence (P09382 whole entry, the tested form may be a part): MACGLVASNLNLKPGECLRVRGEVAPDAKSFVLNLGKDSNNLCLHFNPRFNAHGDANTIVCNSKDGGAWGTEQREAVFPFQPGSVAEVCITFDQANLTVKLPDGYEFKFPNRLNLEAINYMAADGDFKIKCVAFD
Method: (§1) Human galectins-1, -3CRD and -7 were produced in E. coli according to previous studies.
(§2) Samples for use in ITC were diluted to appropriate concentrations in dialysate buffer (25 mM Tris-HCl pH 8.0, 300 mM NaCl and 5 mM β-mercaptoethanol) saved from the ultrafiltration step. All samples were filtered with 0.22 μm cutoff filters (Millipore) and extensively degassed with stirring prior to use. […] To avoid heating effects due to differing concentration of DMSO in the injectant and protein solutions, 5% DMSO was added to the protein. Software provided by Microcal was used for the curve fitting of the experimental data as well as for calculation of the thermodynamic data. Specifically, all ITC data were corrected for the heat of dilution of the titrant by subtracting the excess heats at high molar ratios of ligands to galectins. Binding stoichiometry, enthalpy and equilibrium association constants were determined by fitting the corrected data to a bimolecular interaction model and summarised in Table 1.
(§3) Isothermal titration calorimetry (ITC). Samples for use in ITC were diluted to appropriate concentrations in dialysate buffer (25 mM
(§4) Tris-HCl pH 8.0, 300 mM NaCl and 5 mM β-mercaptoethanol) saved from the ultrafiltration step. All samples were filtered with […] cutoff filters (Millipore) and extensively degassed with stirring prior to use.
(§5) Isothermal titration calorimetry was performed using MicroCal
(§6) Auto-iTC200 (MicroCal, INc., Northampton, MA) at 298K. […]
(§7) order to avoid heating effects due to differing concentration of DMSO in the injectant and protein solutions, 5% DMSO was added to the protein.
(§8) Software provided by Microcal was used for the curve fitting of the experimental data as well as for calculation of the thermodynamic data.
(§9) Specifically, all ITC data were corrected for the heat of dilution of the titrant by subtracting the excess heats at high molar ratios of ligands to galectins. Binding stoichiometry, enthalpy and equilibrium association constants were determined by fitting the corrected data to a bimolecular

galectin-3 [2] = target: T2, galectin-3 (Homo sapiens, UniProt P17931); test: Isothermal titration calorimetry (ITC), galectin-3; type: binding
T2 construct: CRD domain of galectin-3 (residues 113-250); 6xHis; made in house; host or cells: Escherichia coli BL21 (DE3)
T2 sequence (P17931 113-250): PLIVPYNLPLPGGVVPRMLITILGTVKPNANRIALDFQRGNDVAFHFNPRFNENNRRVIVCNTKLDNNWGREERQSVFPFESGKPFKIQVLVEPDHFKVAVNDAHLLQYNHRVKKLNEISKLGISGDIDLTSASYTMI
Method: as §1, §2, §3, §4, §5, §6, §7, §8, §9

galectin-7 = target: T3, galectin-7 (Homo sapiens, UniProt P47929); test: Isothermal titration calorimetry (ITC), galectin-7; type: binding
T3 construct: (residues 1-136); 6xHis; made in house; host or cells: Escherichia coli BL21 (DE3)
T3 sequence (P47929 whole entry, the tested form may be a part): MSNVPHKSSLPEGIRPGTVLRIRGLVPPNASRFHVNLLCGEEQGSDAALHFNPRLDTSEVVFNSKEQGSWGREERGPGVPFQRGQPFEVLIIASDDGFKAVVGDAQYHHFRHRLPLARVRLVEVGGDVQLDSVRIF
Method: as §1, §2, §3, §4, §5, §6, §7, §8, §9

3′-(4-methoxy-2,3,5,6-tetrafluorobenzamido)-N-acetyl-lactosamine [L3]
Kd (galectin-3 [1]): 3.3 µM

OC[C@H]1O[C@@H](S[C@@H]2O[C@H](CO)[C@H](O)[C@H](n3cc(-c4cccc(F)c4)nn3)[C@H]2O)[C@H](O)[C@@H](O)[C@H]1O [TAZTDG, 3-deoxy-3-(4-[m-fluorophenyl]-1H-1,2,3-triazol-1-yl)-thio-digalactoside]
-TΔS (galectin-1; 298 K): 8.6 ± 0.51 kcal/mol
Kd (galectin-1; 298 K): 3.24 ± 0.3 µM
n (stoichiometry) (galectin-1; 298 K): 1.06 ± 0.01
ΔG (galectin-1; 298 K): -7.5 ± 0.05 kcal/mol
ΔH (galectin-1; 298 K): -16.1 ± 0.51 kcal/mol
Relative affinity (galectin-1; 298 K, relative to TDG = 1): 20.7
ΔΔH(TAZTDG–TDG) (galectin-1; galectin-1): -4.5 kcal/mol
-TΔS (galectin-3 [2]; ITC, 298 K): 6.4 ± 1.02 kcal/mol
n (stoichiometry) (galectin-3 [2]; ITC, 298 K): 0.92 ± 0.08
ΔG (galectin-3 [2]; ITC, 298 K): -8.3 ± 0.25 kcal/mol
ΔH (galectin-3 [2]; ITC, 298 K): -14.7 ± 0.99 kcal/mol
Kd (galectin-3 [2]; ITC, 298 K, galectin-3CRD): 0.84 ± 0.41 µM
Relative affinity (galectin-3 [2]; ITC, 298 K, relative to TDG = 1): 89.7
ΔΔH(TAZTDG–TDG) (galectin-3 [2]; ITC, galectin-3): -5.3 kcal/mol
-TΔS (galectin-7; 298 K): 4.4 ± 0.04 kcal/mol
Kd (galectin-7; 298 K): 87 ± 3.21 µM
n (stoichiometry) (galectin-7; 298 K): 0.89 ± 0.01
ΔG (galectin-7; 298 K): -5.5 ± 0.01 kcal/mol
ΔH (galectin-7; 298 K): -10.0 ± 0.04 kcal/mol
Relative affinity (galectin-7; 298 K, relative to TDG = 1): 6.6
ΔΔH(TAZTDG–TDG) (galectin-7; galectin-7): -2.4 kcal/mol

OC[C@H]1O[C@@H](S[C@@H]2O[C@H](CO)[C@H](O)[C@H](n3cc(-c4cccc(F)c4)nn3)[C@H]2O)[C@H](O)[C@@H](n2cc(-c3cccc(F)c3)nn2)[C@H]1O [TD139, 3,3’-deoxy-3,3’-bis-(4-[m-fluorophenyl]-1H-1,2,3-triazol-1-yl)-thio-digalactoside]
-TΔS (galectin-1; 298 K): 7.6 ± 0.43 kcal/mol
n (stoichiometry) (galectin-1; 298 K): 0.96 ± 0.04
ΔH (galectin-1; 298 K): -16.7 ± 0.40 kcal/mol
binding enhancement compared with binding to TDG (galectin-1; galectin-1): ~ 300 fold
ΔΔH(TD139–TAZTDG) (galectin-1; galectin-1): -0.6 kcal/mol
-TΔS (galectin-3 [2]; ITC, 298 K): 8.3 ± 0.90 kcal/mol
n (stoichiometry) (galectin-3 [2]; ITC, 298 K): 0.96 ± 0.01
ΔG (galectin-3 [2]; ITC, 298 K): -9.9 ± 0.37 kcal/mol
ΔH (galectin-3 [2]; ITC, 298 K): -18.2 ± 0.82 kcal/mol
binding enhancement compared with TDG (galectin-3 [2]; ITC, galectin-3): ~ 1000 fold
change in binding free energy ΔΔG(TD139-TDG) (galectin-3 [2]; ITC, galectin-3): -4.3 kcal/mol
enthalpy change ΔΔH(TD139-TDG) (galectin-3 [2]; ITC, galectin-3): -8.8 kcal/mol
entropy change –TΔΔS(TD139-TDG) (galectin-3 [2]; ITC, galectin-3): 4.6 kcal/mol
ΔΔH(TD139–TAZTDG) (galectin-3 [2]; ITC, galectin-3): -3.5 kcal/mol
increase in binding affinity compared with L3 (galectin-3 [2]; galectin-3, versus literature Kd of L3): 50 fold
-TΔS (galectin-7; 298 K): 3.2 ± 0.09 kcal/mol
Kd (galectin-7; 298 K): 38 ± 0.71 µM
n (stoichiometry) (galectin-7; 298 K): 0.99 ± 0.10
ΔG (galectin-7; 298 K): -6.1 ± 0.06 kcal/mol
difference in binding free energy ΔΔG(TD139-TDG) (galectin-7; galectin-7): -1.7 kcal/mol
increase in affinity compared with TDG binding (galectin-7; galectin-7): 15 fold
ΔΔH(TD139–TAZTDG) (galectin-7; galectin-7): 0.7 kcal/mol

OC[C@H]1O[C@@H](S[C@@H]2O[C@H](CO)[C@H](O)[C@H](O)[C@H]2O)[C@H](O)[C@@H](O)[C@H]1O [TDG, thio-digalactoside]
-TΔS (galectin-1; 298 K): 5.9 ± 0.27 kcal/mol
n (stoichiometry) (galectin-1; 298 K): 1.02 ± 0.10
ΔH (galectin-1; 298 K): -11.6 ± 0.26 kcal/mol
-TΔS (galectin-3 [2]; ITC, 298 K): 3.7 ± 0.48 kcal/mol
n (stoichiometry) (galectin-3 [2]; ITC, 298 K): 1.02 ± 0.05
ΔH (galectin-3 [2]; ITC, 298 K): -9.4 ± 0.48 kcal/mol
-TΔS (galectin-7; 298 K): 3.2 ± 0.55 kcal/mol
n (stoichiometry) (galectin-7; 298 K): 0.94 ± 0.02
ΔG (galectin-7; 298 K): -4.4 ± 0.06 kcal/mol
ΔH (galectin-7; 298 K): -7.6 ± 0.55 kcal/mol
